Structures are written as SMILES.

Our source for the IC50 values is patent US20190275012A9, “SUBSTITUTED THIAZOLO-PYRIDINE COMPOUNDS AS MALT1 INHIBITORS” (Lupin Limited, priority 2016, published 2019).

This assay deals with NF-kB transcriptional activity in HEK-293-NF-kB-Luc cell line overexpressing MALT1. Description: NF-kB reporter assay (luciferase, MALT1 stably overexpressed). In kind it is cell-based. Particulars: Homo sapiens, 24 h, HEK-293-NF-kB-Luc cells stably overexpressing MALT1, 24 h treatment, Bright Glo luminescence; read-out: NF-kB inhibition IC50. How it is done: The NF-⇐B reporter assay was performed to screen for MALT1 inhibition mediated reduction in the NF-⇐B transcriptional activity. For this purpose, MALT1 was stably overexpressed in HEK-293—NF-⇐B-Luc cell line. Cells were seeded in poly-D-lysine coated 96-well plates in a culture medium containing the selection markers (DMEM+10% FBS+50 |g/ml Hygromycin+500 |g/ml Geniticin) and allowed to adhere overnight. On the following day, cells were treated with various concentrations of test compounds for 24 h. After 24 h of treatment with test compounds, media was removed from each well and Bright Glo™ (Promega, USA) substrate was added and incubated for further 10 min at ambient temperature. Luminescence was measured for detection of NF-⇐B reporter activity. RLUs (Relative Luminescence Units) were directly proportional to the NF-⇐B activity. % inhibition of NF-⇐B activity was calculated relative to the samples containing media with 0.1% DMSO alone as per the following formula
For the molecule `CCC(OC)c1c(NC(=O)Nc2cnc(-n3nccn3)c(C(F)(F)F)c2)cnc2sc(C)nc12` (single isomer, unassigned) [Compound 146a, 1-(6-(2H-1,2,3-Triazol-2-yl)-5-(trifluoromethyl)pyridin-3-yl)-3-(7-(1-methoxypropyl)-2-methylthiazolo[5,4-b]pyridin-6-yl)urea], the 50% inhibitory concentration (IC50) was 1 to 100 nM.

In the case of `COc1nc(-n2nccn2)c(Cl)cc1NC(=O)Nc1cnc2sc(C)nc2c1C(OC)C1CC1` (single isomer, unassigned) [Compound 156a, 1-(5-Chloro-2-methoxy-6-(2H-1,2,3-triazol-2-yl)pyridin-3-yl)-3-(7-(cyclopropyl(methoxy)methyl)-2-methylthiazolo[5,4-b]pyridin-6-yl)urea], the IC50 fell in the range of 1 to 100 nM.

Turning to `CCc1nc2c(C(C)OC)c(NC(=O)Nc3cnc(-n4nccn4)c(C(F)(F)F)c3)cnc2s1` (stereo not drawn) [Compound 232b, 1-(6-(2H-1,2,3-Triazol-2-yl)-5-(trifluoromethyl)pyridin-3-yl)-3-(2-ethyl-7-(1-methoxyethyl)thiazolo[5,4-b]pyridin-6-yl)urea], the concentration for half-maximal inhibition (IC50) was 1 to 100 nM.

Consider `Cc1nc2c(C3(CO)CC3)c(NC(=O)Nc3cnc(-n4nccn4)c(Cl)c3)cnc2s1` [Compound 105, 1-(5-Chloro-6-(2H-1,2,3-triazol-2-yl)pyridin-3-yl)-3-(7-(1-(hydroxymethyl)cyclopropyl)-2-methylthiazolo[5,4-b]pyridin-6-yl)urea], for which the IC50 is 1 to 100 nM.

Turning to `CCC(OC)c1c(NC(=O)Nc2cnc(OC)c(Cl)c2)cnc2sc(C)nc12` (single isomer, unassigned) [Compound 127a, 1-(5-Chloro-6-methoxypyridin-3-yl)-3-(7-(1-methoxypropyl)-2-methylthiazolo[5,4-b]pyridin-6-yl)urea], the half-inhibitory concentration (IC50) lay within 1 to 100 nM.

Take `COc1nc(-n2nccn2)c(Cl)cc1NC(=O)Nc1cnc2sc(C)nc2c1C1(C)CC1` [Compound 178, 1-(5-Chloro-2-methoxy-6-(2H-1,2,3-triazol-2-yl)pyridin-3-yl)-3-(2-methyl-7-(1-methyleyelopropyl)thiazolo[5,4-b]pyridin-6-yl)urea]: the IC50 was 1 to 100 nM.

With `COc1nc(-n2nccn2)c(Cl)cc1NC(=O)Nc1cnc2sc(C)nc2c1C(C)C` [Compound 184, 1-(5-Chloro-2-methoxy-6-(2H-1,2,3-triazol-2-yl)pyridin-3-yl)-3-(7-isopropyl-2-methylthiazolo[5,4-b]pyridin-6-yl)urea], the half-inhibitory concentration (IC50) is 1 to 100 nM.

As for `COc1nc(OC)c(NC(=O)Nc2cnc3sc(C)nc3c2C(C)C)cc1Cl` [Compound 186, 1-(5-Chloro-2,6-dimethoxypyridin-3-yl)-3-(7-isopropyl-2-methylthiazolo[5,4-b]pyridin-6-yl)urea], the half-maximal inhibitory concentration (IC50) was 501 to 1500 nM.

With `COC(c1c(NC(=O)Nc2cnc(-n3nccn3)c(Cl)c2)cnc2sc(C)nc12)C1CC1` (single isomer, unassigned) [Compound 154a, 1-(5-Chloro-6-(2H-1,2,3-triazol-2-yl)pyridin-3-yl)-3-(7-(cyclopropyl(methoxy)methyl)-2-methylthiazolo[5,4-b]pyridin-6-yl)urea], the IC50 fell in the range of 1 to 100 nM.

Consider `CCC(C)c1c(NC(=O)Nc2cnc(-n3nccn3)c(Cl)c2)cnc2sc(C)nc12` (single isomer, unassigned) [Compound 157a, 1-(7-(sec-Butyl)-2-methylthiazolo[5,4-b]pyridin-6-yl)-3-(5-chloro-6-(2H-1,2,3-triazol-2-yl)pyridin-3-yl)urea], for which the IC50 is 1 to 100 nM.

As to `COc1ncc(NC(=O)Nc2cnc3sc(C)nc3c2C2CC2)cc1Br` [Compound 175, 1-(5-Bromo-6-methoxypyridin-3-yl)-3-(7-cyclopropyl-2-methylthiazolo[5,4-b]pyridin-6-yl)urea], the IC50 lay within 501 to 1500 nM.

Regarding `COCC1(c2c(NC(=O)Nc3ccc(-n4nccn4)c(Cl)c3)cnc3sc(C)nc23)CC1` [Compound 64, 1-(3-Chloro-4-(2H-1,2,3-triazol-2-yl)phenyl)-3-(7-(1-(methoxymethyl)cyclopropyl)-2-methylthiazolo[5,4-b]pyridin-6-yl)urea], the IC50 is 101 to 500 nM.

On to `Cc1nc2c(C(N(C)C)C(F)(F)F)c(NC(=O)Nc3cnc(-n4nccn4)c(C(F)(F)F)c3)cnc2s1` (stereo not drawn) [Compound 230b, 1-(6-(2H-1,2,3-triazol-2-yl)-5-(trifluoromethyl)pyridin-3-yl)-3-(7-(1-(dimethylamino)-2,2,2-trifluoroethyl)-2-methylthiazolo[5,4-b]pyridin-6-yl)urea], for which the IC50 was in the range of 1 to 100 nM.

Consider `CCC(c1c(NC(=O)Nc2cnc(-n3nccn3)c(Cl)c2)cnc2sc(C)nc12)N(C)C` (single isomer, unassigned) [Compound 227b, 1-(5-Chloro-6-(2H-1,2,3-triazol-2-yl)pyridin-3-yl)-3-(7-(1-(dimethylamino)propyl)-2-methylthiazolo[5,4-b]pyridin-6-yl)urea], for which the 50% inhibitory concentration (IC50) was 1 to 100 nM.

Take `Cc1nc2c(C3CC3)c(NC(=O)Nc3ccnc(C#N)c3)cnc2s1` [Compound 12, 1-(2-Cyanopyridin-4-yl)-3-(7-cyclopropyl-2-methylthiazolo[5,4-b]pyridin-6-yl)urea]: the IC50 was 501 to 1500 nM.

Consider `COC(C)c1c(NC(=O)Nc2cnc(-c3ncc(C)o3)c(Cl)c2)cnc2sc(C)nc12` (single isomer, unassigned) [Compound 148b, 1-(5-Chloro-6-(5-methyloxazol-2-yl)pyridin-3-yl)-3-(7-(1-methoxyethyl)-2-methylthiazolo[5,4-b]pyridin-6-yl)urea], for which the IC50 was in the range of 1 to 100 nM.

As for `COC(C)c1c(NC(=O)Nc2ccc(-c3ncccn3)c(Cl)c2)cnc2sc(C)nc12` (single isomer, unassigned) [Compound 202, (S) or (R)-1-(3-Chloro-4-(pyrimidin-2-yl)phenyl)-3-(7-(1-methoxyethyl)-2-methylthiazolo[5,4-b]pyridin-6-yl)urea], the concentration for half-maximal inhibition (IC50) was in the range of 1 to 100 nM.

`Cc1nc2c(C3CCCCO3)c(NC(=O)Nc3cnc(-n4nccn4)c(Cl)c3)cnc2s1` (single isomer, unassigned) [Compound 140b, 1-(5-Chloro-6-(2H-1,2,3-triazol-2-yl)pyridin-3-yl)-3-(2-methyl-7-(tetra hydro-2H-pyran-2-yl)thiazolo[5,4-b]pyridin-6-yl)urea]: the concentration for half-maximal inhibition (IC50) was in the range of 101 to 500 nM.

In the case of `COC(C)c1c(NC(=O)Nc2ccc(-n3nccn3)c(C(F)F)c2)cnc2sc(C)nc12` (single isomer, unassigned) [Compound 207a, (R) or (S)-1-(3-(Difluoromethyl)-4-(2H-1,2,3-triazol-2-yl)phenyl)-3-(7-(1-methoxyethyl)-2-methylthiazolo[5,4-b]pyridin-6-yl)urea], the IC50 lay within 1 to 100 nM.

In the case of `Cc1ncn(-c2ccc(NC(=O)Nc3cnc4sc(C)nc4c3C3CC3)cc2Cl)n1` [Compound 173, 1-(3-Chloro-4-(3-methyl-1H-1,2,4-triazol-1-yl)phenyl)-3-(7-cyclopropyl-2-methylthiazolo[5,4-b]pyridin-6-yl)urea], the half-maximal inhibitory concentration (IC50) is 501 to 1500 nM.

As to `COC(C)(c1c(NC(=O)Nc2cnc(-n3nccn3)c(C(F)(F)F)c2)cnc2sc(C)nc12)C1CC1` (single isomer, unassigned) [Compound 93a, 1-(6-(2H-1,2,3-triazol-2-yl)-5-(trifluoromethyl)pyridin-3-yl)-3-(7-(1-cyclopropyl-1-methoxyethyl)-2-methylthiazolo[5,4-b]pyridin-6-yl)urea], the IC50 fell in the range of 1 to 100 nM.
